Assay results: publication PMC11822212, “High-throughput screening identifies Aurora kinase B as a critical therapeutic target for Merkel cell carcinoma” (Nature Communications, 2025)
Read-outs that look alike come from different tables or passages of the source.

Tests used:
MKL-2 cells (VP-MCC) = assay: qHTS cell viability (CellTiter-Glo, 72 h; primary and follow-up small molecule screen); assay type: cell-based, human
HEK293T cells = assay: qHTS cell viability (CellTiter-Glo, 72 h; primary screen), control cell line; assay type: cell-based, human
CRL-7250 cells = assay: as above; assay type: cell-based
[1] = tested on: control cell lines (HACAT, HEK293T, CRL-7250, NIH-3T3); assay: qHTS cell viability, control cell lines as a group (mean AUC, Control.avg); assay type: cell-based
HACAT cells = assay: qHTS cell viability (CellTiter-Glo, 72 h; primary screen), control cell line; assay type: cell-based, human
NIH-3T3 cells = assay: as above; assay type: cell-based, mouse
MCC13 cells (VN-MCC) = assay: qHTS cell viability (CellTiter-Glo, 72 h; primary and follow-up small molecule screen); assay type: cell-based, human
[2] = tested on: VP-MCC cell lines (WAGA, MKL-1, MKL-2); assay: qHTS cell viability, VP-MCC cell lines as a group (mean AUC, VP.MCC.avg); assay type: cell-based, human
[3] = tested on: MCC cell lines (WAGA, MKL-1, MKL-2, MCC13, MCC26, UISO); assay: qHTS cell viability, all six MCC cell lines as a group (mean AUC, MCC.avg); assay type: cell-based, human
UISO cells (VN-MCC) = assay: qHTS cell viability (CellTiter-Glo, 72 h; primary and follow-up small molecule screen); assay type: cell-based, human
WAGA cells (VP-MCC) = assay: as above; assay type: cell-based, human
MCC26 cells (VN-MCC) = assay: as above; assay type: cell-based, human
[4] = tested on: six MCC cell lines and four control cell lines; assay: qHTS cell viability, all 10 cell lines screened; assay type: cell-based
[5] = tested on: VN-MCC cell lines (MCC13, MCC26, UISO); assay: qHTS cell viability, VN-MCC cell lines as a group (mean AUC, VN.MCC.avg); assay type: cell-based, human
MKL-1 cells (VP-MCC) = assay: qHTS cell viability (CellTiter-Glo, 72 h; primary and follow-up small molecule screen); assay type: cell-based, human
[6] = NPC library, mean AUC of control cell lines
[7] = NPC library, mean AUC of VP-MCC cell lines
[8] = NPC library, mean AUC of six MCC cell lines
[9] = NPC library, mean AUC of VN-MCC cell lines
[10] = NPC library, 8-point DRC, area under dose-response curve
[11] = NPC library, 8-point DRC, control cell line

In the case of `CC1=C(C)C(=O)C(CCCCC#CCCCC#CCO)=C(C)C1=O` [Docebenone], the MKL2_AUC (MKL-2 cells (VP-MCC); NPC library, qHTS dose-response AUC, MKL2) is reported as 406.862, the MKL2_AUC (MKL-2 cells (VP-MCC); area under the dose-response curve, MKL-2 cells, AUC<450 = reduced viability) is reported as 406.862 and the HEK293T_AUC (HEK293T cells; NPC library, qHTS dose-response AUC, HEK293T control) is reported as 450.348. For the same compound, the HEK293T_AUC (HEK293T cells; area under the dose-response curve, HEK293T control cells, AUC<450 = reduced viability) was 450.348, the CRL7250_AUC (CRL-7250 cells; NPC library, qHTS dose-response AUC, CRL7250 control) was 490.119 and the CRL7250_AUC (CRL-7250 cells; area under the dose-response curve, CRL7250 control cells, AUC<450 = reduced viability) was 490.119. It also gave a Control_Avg_AUC [1, 6] of 470.48, an HACAT_AUC (HACAT cells; NPC library, qHTS dose-response AUC, HACAT control) of 486.31 and an HACAT_AUC (HACAT cells; area under the dose-response curve, HACAT control cells, AUC<450 = reduced viability) of 486.31. It also gave an NIH3T3_AUC (NIH-3T3 cells; NPC library, qHTS dose-response AUC, NIH3T3 control) of 455.144, an NIH3T3_AUC (NIH-3T3 cells; area under the dose-response curve, NIH3T3 control cells, AUC<450 = reduced viability) of 455.144 and an MCC13_AUC (MCC13 cells (VN-MCC); NPC library, qHTS dose-response AUC, MCC13) of 444.208. The MCC13_AUC (MCC13 cells (VN-MCC); area under the dose-response curve, MCC13 cells, AUC<450 = reduced viability) was 444.208, the VP-MCC_Avg_AUC [2, 7] was 416.945 and the Control-VP-MCC ([2]; NPC library, therapeutic window: Control avg AUC minus VP-MCC avg AUC) was 53.5349. The MCC_Avg_AUC [3, 8] was 426.453, the UISO_AUC (UISO cells (VN-MCC); NPC library, qHTS dose-response AUC, UISO) was 433.913 and the UISO_AUC (UISO cells (VN-MCC); area under the dose-response curve, UISO cells, AUC<450 = reduced viability) was 433.913. The WAGA_AUC (WAGA cells (VP-MCC); NPC library, qHTS dose-response AUC, WAGA) was 424.745, the WAGA_AUC (WAGA cells (VP-MCC); area under the dose-response curve, WAGA cells, AUC<450 = reduced viability) was 424.745 and the MCC26_AUC (MCC26 cells (VN-MCC); NPC library, qHTS dose-response AUC, MCC26) was 429.759. For the same compound, the MCC26_AUC (MCC26 cells (VN-MCC); area under the dose-response curve, MCC26 cells, AUC<450 = reduced viability) was 429.759, the Control-MCC ([4]; NPC library, therapeutic window: Control avg AUC minus MCC avg AUC) was 44.0275 and the VN-MCC_Avg_AUC [5, 9] was 435.96. For the same compound, the Control-VN-MCC ([5]; NPC library, therapeutic window: Control avg AUC minus VN-MCC avg AUC) was 34.5201, the MKL1_AUC (MKL-1 cells (VP-MCC); NPC library, qHTS dose-response AUC, MKL1) was 419.228 and the MKL1_AUC (MKL-1 cells (VP-MCC); {}) was 419.228.

In the case of `CNC(=O)[C@H](CC1=CN=C2C=CCC=C12)NC(=O)[C@@H](CC(=O)NO)CC(C)C` [GM-6001], the MKL2_AUC (MKL-2 cells (VP-MCC)) is reported as 291.464, the HEK293T_AUC (HEK293T cells) is reported as 473.463 and the CRL7250_AUC (CRL-7250 cells) is reported as 472.869. For the same compound, the Control_Avg_AUC [1] was 469.151, the HACAT_AUC (HACAT cells) was 458.777 and the NIH3T3_AUC (NIH-3T3 cells) was 471.496. For the same compound, the MCC13_AUC (MCC13 cells (VN-MCC)) was 475.165, the Control-VP-MCC [2] was 170.899 and the VP-MCC_Avg_AUC [2] was 298.252. It also gave an MCC_Avg_AUC [3] of 388.271, a UISO_AUC (UISO cells (VN-MCC)) of 484.498 and a WAGA_AUC (WAGA cells (VP-MCC)) of 319.008. It also gave an MCC26_AUC (MCC26 cells (VN-MCC)) of 475.207, a Control-MCC [4] of 80.8804 and a Control-VN-MCC [5] of -9.139. It also gave a VN-MCC_Avg_AUC [5] of 478.29 and an MKL1_AUC (MKL-1 cells (VP-MCC)) of 284.283.

Work on `Oc1ccc(C2CNCCc3c2cc(O)c(O)c3Cl)cc1` (stereo not shown) [Fenoldopam] yielded an MKL2_AUC (MKL-2 cells (VP-MCC); [10]) of 452.751, an HEK293T_AUC (HEK293T cells; [11]) of 492.113 and a CRL7250_AUC (CRL-7250 cells; [11]) of 492.55. The Control_Avg_AUC [1, 6] was 491.543, the HACAT_AUC (HACAT cells; [11]) was 491.95 and the NIH3T3_AUC (NIH-3T3 cells; [11]) was 489.56. For the same compound, the MCC13_AUC (MCC13 cells (VN-MCC); [10]) was 446.053, the Control-VP-MCC ([2]; NPC library, Control AUC minus VP-MCC AUC (therapeutic window)) was 43.713 and the VP-MCC_Avg_AUC [2, 7] was 447.83. It also gave an MCC_Avg_AUC [3, 8] of 444.271, a UISO_AUC (UISO cells (VN-MCC); [10]) of 438.854 and a WAGA_AUC (WAGA cells (VP-MCC); [10]) of 438.933. It also gave an MCC26_AUC (MCC26 cells (VN-MCC); [10]) of 437.226, a Control-MCC ([4]; NPC library, Control AUC minus MCC AUC (therapeutic window)) of 47.2727 and a Control-VN-MCC ([5]; NPC library, Control AUC minus VN-MCC AUC (therapeutic window)) of 50.8323. For the same compound, the VN-MCC_Avg_AUC [5, 9] was 440.711 and the MKL1_AUC (MKL-1 cells (VP-MCC); [10]) was 451.807.
